In brackets after ≈: the same amount, converted by molar mass. Several values for one entry are separate records, joined by “and”; a condition that tells them apart may be missing. Identical values can stand only once. Like-named read-outs stand apart in the source and are kept apart here.
Tests used:
Mtb H37Rv [1] = test: Extracellular Mtb growth on cholesterol, MABA MIC99; assay type: cell-based, Mycobacterium tuberculosis; settings: read-out: MABA-MIC99 (W2) H37Rv, cholesterol
Mtb H37Rv [2] = test: Depletion of intracellular ATP (BacTiter Glo), Mtb on cholesterol; assay type: cell-based, Mycobacterium tuberculosis; settings: cholesterol as sole carbon source
[3] = system: Mtb H37Rv pATB45luc in THP-1 macrophages; test: microbe, parasite or virus in culture; assay type: cell-based; settings: Mycobacterium tuberculosis, 120 h, 5 days post-compound treatment, mean ± SD n = 2, read-out: intracellular growth Mtb IC50
[4] = system: MDR-TB strain K26b00MR 113; test: microbe, parasite or virus in culture; assay type: cell-based, Mycobacterium tuberculosis; settings: for MIC90: Mycobacterium tuberculosis
H37Rv Mtb = test: Extracellular Mtb growth, MABA MIC90 (drug susceptible strain); assay type: cell-based; settings: Mycobacterium tuberculosis
CYP142 [5] = molecular target: T1, CYP142 (Mycobacterium tuberculosis, UniProt P9WPL5)
CYP125 [6] = molecular target: T2, CYP125 (Mycobacterium tuberculosis, UniProt P9WPP1); test: biochemical; assay type: binding; settings: read-out: KD (μM) CYP125
CYP142 [7] = molecular target: T1, CYP142; settings: compound 100 µM, P450 5 µM
CYP125 [8] = molecular target: T2, CYP125; assay type: binding; settings: compound 100 µM, P450 5 µM; high spin population; '-' = no HS maxima present
[9] = system: uninfected THP-1 macrophages; test: THP-1 cytotoxicity (ATPLite); settings: for THP-1 LD50: uninfected THP-1 macrophages, ATP-dependent luminescence, 5 days, top concentration 50 μM
Mtb (Erdman) = test: Extracellular Mtb (Erdman) growth on cholesterol-supplemented (0.01%) media, MABA; assay type: cell-based, Mycobacterium tuberculosis; settings: MABA 1 week post-compound treatment, mean ± SD n = 3, read-out: mixed media IC50 (Erdman)
CYP3A4 = molecular target: T3, CYP3A4 (Homo sapiens, UniProt P08684); test: Inhibition of human liver microsomal P450s; assay type: in vitro ADME
T3 construct: from tissue; host or cells: human liver microsomes
Text: (§1) Table S8. Inhibition of human liver microsomal P450s. Inhibition constants (IC 50 values, µM) of
(§2) following substrates: CYP1A-ethoxyresorufin, CYP2C19- mephenytoin, CYP2C9-tolbutamide, CYP2D6-
(§3) dextromethorphan, CYP3A4-midazolam/testosterone.

CYP2C9 = molecular target: T4, CYP2C9 (Homo sapiens, UniProt P11712); test: Inhibition of human liver microsomal P450s; assay type: in vitro ADME
T4 construct: from tissue; host or cells: human liver microsomes
Text: as §1, §2, §3

CYP2D6 = molecular target: T5, CYP2D6 (Homo sapiens, UniProt P10635); test: Inhibition of human liver microsomal P450s; assay type: in vitro ADME
T5 construct: from tissue; host or cells: human liver microsomes
Text: as §1, §2, §3

CYP2C19 = molecular target: T6, CYP2C19 (Homo sapiens, UniProt P33261); test: Inhibition of human liver microsomal P450s; assay type: in vitro ADME
T6 construct: from tissue; host or cells: human liver microsomes
Text: as §1, §2, §3

CYP1A = molecular target: T7, CYP1A (Homo sapiens, UniProt P05177); test: Inhibition of human liver microsomal P450s; assay type: in vitro ADME
T7 construct: from tissue; host or cells: human liver microsomes
T7 sequence (P05177 2-516 limits assumed): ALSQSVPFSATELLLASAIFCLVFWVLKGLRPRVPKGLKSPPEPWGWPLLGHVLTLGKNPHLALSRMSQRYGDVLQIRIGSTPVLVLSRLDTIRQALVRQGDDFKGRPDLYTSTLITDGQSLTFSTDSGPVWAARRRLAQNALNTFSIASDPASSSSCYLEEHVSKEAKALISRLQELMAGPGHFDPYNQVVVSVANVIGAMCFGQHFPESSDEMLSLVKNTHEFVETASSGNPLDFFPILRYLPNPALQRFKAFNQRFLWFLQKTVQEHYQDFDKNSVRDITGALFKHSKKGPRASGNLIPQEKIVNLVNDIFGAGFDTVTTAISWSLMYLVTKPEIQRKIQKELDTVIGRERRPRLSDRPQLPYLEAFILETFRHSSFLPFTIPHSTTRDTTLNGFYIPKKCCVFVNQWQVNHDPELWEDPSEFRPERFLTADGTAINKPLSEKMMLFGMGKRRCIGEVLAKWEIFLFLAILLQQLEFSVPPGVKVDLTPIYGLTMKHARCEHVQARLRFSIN
Text: as §1, §2, §3

CYP125 [10] = molecular target: T2, CYP125; test: LC-MS substrate turnover assay (cholest-4-en-3-one); assay type: biochemical; settings: for IC50: CYP125 0.5 μM, cholest-4-en-3-one 5 µM, LC-MS, read-out: CYP125A1 IC50; for Ki: estimated by Cheng-Prusoff, cholest-4-en-3-one Km CYP125 = 2.1 µM, read-out: CYP125A1 KI
Mtb CDC1551 [11] = test: Depletion of intracellular ATP, Mtb on glucose; settings: glucose as sole carbon source
Experimental: (§4) (Mtb) H37Rv or CDC1551 strains were grown in Middlebrook 7H9 broth medium (Difco) supplemented with 0.3 g/L casitone, 0.81 g/L NaCl, 0.05% (v/v) tyloxapol, and either 97 mg/L cholesterol, 4 g/L glucose, or 0.2% glycerol. For inhibitor assays, a 10-fold serial dilution of the test compounds was made in the desired medium in duplicate rows of a 96-well plate. Mtb cells were then added to all the wells at the final concentration of 1 × 10^4 CFU, and plates were incubated at 37 °C for up to 15 days. Minimum inhibitory concentrations (MIC99) were determined using the Microplate Alamar Blue Assay (MABA) on day 15.
(§5) BacTiter Glo reagent (Promega) was added to microtiter plates (1:10 dilution) and luminescence was recorded after 15 min of incubation at room temperature. […] Isoniazid or p-amino salicylic acid were used as positive control compounds for all experiments. Reported MIC and IC50 values are the mean of duplicate treatments.

Mtb CDC1551 [12] = test: Extracellular Mtb growth on cholesterol, MABA MIC99; assay type: cell-based, Mycobacterium tuberculosis; settings: read-out: MABA-MIC99 (W2) CDC1551, cholesterol
Mtb CDC1551 [13] = test: Depletion of intracellular ATP (BacTiter Glo), Mtb on cholesterol; assay type: cell-based; settings: Mycobacterium tuberculosis, cholesterol as sole carbon source
Mtb H37Rv [14] = system: Mtb H37Rv
Experimental: as §4, §5

CYP142 [15] = molecular target: T1, CYP142; test: biochemical
[16] = Mycobacterium tuberculosis, H37RV, 336 h, cholesterol as sole carbon source, 2 weeks post-compound treatment
[17] = Mycobacterium tuberculosis, H37RV, 168 h, 1 week post-compound treatment, read-out: ATP-IC50 (W1) H37Rv, cholesterol
[18] = Mycobacterium tuberculosis, H37RV, 336 h, 2 weeks post-compound treatment, read-out: ATP-IC50 (W2) H37Rv, cholesterol
[19] = Mycobacterium tuberculosis, ERDMAN, 168 h
[20] = CYP3A4 IC50 (midazolam), substrate midazolam (first value of cell)
[21] = CYP3A4 IC50 (testosterone), substrate testosterone (second value of cell)
[22] = read-out: ATP IC50 (W1) CDC1551, glucose media, 1 week
[23] = Mycobacterium tuberculosis, CDC1551, 336 h, cholesterol as sole carbon source, 2 weeks post-compound treatment
[24] = CDC1551, 168 h, 1 week post-compound treatment, read-out: ATP-IC50 (W1) CDC1551, cholesterol
[25] = CDC1551, 336 h, 2 weeks post-compound treatment, read-out: ATP-IC50 (W2) CDC1551, cholesterol
[26] = cholesterol as sole carbon source, 2 weeks post-compound treatment
[27] = read-out: ATP IC50 (W2) CDC1551, glucose media, 2 weeks

T3 sequence (P08684 whole entry): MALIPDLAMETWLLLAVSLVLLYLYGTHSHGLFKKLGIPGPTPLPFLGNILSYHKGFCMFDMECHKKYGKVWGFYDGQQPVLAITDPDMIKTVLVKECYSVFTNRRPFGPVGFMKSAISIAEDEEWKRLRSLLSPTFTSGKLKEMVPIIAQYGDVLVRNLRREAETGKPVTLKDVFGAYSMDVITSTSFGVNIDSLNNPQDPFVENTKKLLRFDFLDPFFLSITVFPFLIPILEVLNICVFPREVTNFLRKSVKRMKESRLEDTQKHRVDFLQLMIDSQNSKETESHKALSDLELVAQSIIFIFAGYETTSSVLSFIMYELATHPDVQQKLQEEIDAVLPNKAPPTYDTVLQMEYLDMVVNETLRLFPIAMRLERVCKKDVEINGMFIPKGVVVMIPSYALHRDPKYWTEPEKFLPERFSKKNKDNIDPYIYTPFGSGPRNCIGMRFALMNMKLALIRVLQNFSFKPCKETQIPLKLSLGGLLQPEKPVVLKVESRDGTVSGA
T2 sequence (P9WPP1 whole entry): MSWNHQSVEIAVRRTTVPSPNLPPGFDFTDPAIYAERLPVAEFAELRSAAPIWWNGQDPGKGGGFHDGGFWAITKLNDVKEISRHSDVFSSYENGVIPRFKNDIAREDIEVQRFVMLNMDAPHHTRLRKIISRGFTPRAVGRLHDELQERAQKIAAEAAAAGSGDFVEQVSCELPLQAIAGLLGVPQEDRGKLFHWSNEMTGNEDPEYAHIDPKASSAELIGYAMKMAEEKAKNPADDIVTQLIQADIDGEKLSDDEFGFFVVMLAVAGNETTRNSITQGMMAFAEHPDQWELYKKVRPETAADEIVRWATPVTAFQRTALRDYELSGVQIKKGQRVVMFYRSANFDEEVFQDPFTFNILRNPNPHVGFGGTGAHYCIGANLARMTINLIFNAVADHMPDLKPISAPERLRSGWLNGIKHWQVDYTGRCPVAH
T1 sequence (P9WPL5 whole entry): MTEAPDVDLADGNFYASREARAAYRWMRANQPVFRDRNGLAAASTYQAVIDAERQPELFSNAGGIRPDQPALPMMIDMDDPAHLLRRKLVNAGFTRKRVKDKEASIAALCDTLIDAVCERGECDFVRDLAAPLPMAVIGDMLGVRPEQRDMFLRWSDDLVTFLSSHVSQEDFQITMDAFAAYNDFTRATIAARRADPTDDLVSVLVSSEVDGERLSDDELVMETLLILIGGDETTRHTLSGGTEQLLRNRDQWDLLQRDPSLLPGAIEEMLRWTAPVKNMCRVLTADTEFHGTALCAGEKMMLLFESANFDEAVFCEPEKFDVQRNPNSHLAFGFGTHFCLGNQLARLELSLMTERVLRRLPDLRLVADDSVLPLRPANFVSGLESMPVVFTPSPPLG
T5 sequence (P10635 whole entry): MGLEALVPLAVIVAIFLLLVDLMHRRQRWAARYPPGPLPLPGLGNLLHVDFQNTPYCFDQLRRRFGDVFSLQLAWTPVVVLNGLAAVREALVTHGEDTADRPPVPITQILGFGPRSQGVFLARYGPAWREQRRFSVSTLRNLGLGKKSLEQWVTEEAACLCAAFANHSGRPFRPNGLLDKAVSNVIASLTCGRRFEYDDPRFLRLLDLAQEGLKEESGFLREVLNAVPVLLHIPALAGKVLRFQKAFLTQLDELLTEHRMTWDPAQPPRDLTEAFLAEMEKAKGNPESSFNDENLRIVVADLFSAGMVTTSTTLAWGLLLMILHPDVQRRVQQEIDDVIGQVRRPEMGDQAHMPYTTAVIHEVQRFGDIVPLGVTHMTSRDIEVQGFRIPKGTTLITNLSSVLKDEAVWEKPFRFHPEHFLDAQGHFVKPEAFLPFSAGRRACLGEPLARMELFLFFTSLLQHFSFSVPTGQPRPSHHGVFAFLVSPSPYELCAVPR
T6 sequence (P33261 whole entry): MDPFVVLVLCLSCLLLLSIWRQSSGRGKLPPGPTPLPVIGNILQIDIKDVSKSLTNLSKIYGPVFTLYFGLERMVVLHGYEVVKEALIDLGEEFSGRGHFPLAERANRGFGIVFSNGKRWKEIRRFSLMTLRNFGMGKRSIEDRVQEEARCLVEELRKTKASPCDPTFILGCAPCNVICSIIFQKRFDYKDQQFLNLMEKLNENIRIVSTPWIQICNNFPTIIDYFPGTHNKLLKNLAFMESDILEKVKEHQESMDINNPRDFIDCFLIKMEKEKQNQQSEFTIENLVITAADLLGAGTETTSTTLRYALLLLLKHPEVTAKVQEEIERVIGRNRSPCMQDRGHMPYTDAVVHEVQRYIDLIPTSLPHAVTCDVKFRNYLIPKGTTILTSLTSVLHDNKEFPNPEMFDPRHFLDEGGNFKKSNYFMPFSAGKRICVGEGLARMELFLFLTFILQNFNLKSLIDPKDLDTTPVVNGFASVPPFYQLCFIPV
T4 sequence (P11712 whole entry): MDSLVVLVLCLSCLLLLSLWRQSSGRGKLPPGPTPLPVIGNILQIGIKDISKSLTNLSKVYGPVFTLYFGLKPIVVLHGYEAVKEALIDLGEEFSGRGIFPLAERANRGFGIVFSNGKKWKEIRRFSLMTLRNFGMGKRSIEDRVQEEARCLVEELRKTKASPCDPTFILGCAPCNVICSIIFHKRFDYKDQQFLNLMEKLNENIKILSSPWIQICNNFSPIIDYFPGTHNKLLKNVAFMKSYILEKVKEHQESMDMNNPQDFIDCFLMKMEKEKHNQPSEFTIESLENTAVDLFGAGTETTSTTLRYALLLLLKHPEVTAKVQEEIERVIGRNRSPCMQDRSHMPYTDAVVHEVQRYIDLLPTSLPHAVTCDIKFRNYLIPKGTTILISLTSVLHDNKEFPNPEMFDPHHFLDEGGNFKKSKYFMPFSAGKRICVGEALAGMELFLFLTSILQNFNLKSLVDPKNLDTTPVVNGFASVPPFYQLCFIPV

Row | Compound | MIC99 (Mtb H37Rv [1]; [16]) [µM] | IC50 (Mtb H37Rv [2]; [17]) [nM] | IC50 (Mtb H37Rv [2]; [18]) [nM] | IC50 [3] [nM] | Kd (CYP125 [6]) [µM] | IC50 (CYP125 [10]) [nM] | Ki (CYP125 [10]) [nM] | IC50 (Mtb CDC1551 [11]; [22]) [nM] | MIC99 (Mtb CDC1551 [12]; [23]) [µM] | IC50 (Mtb CDC1551 [13]; [24]) [nM] | IC50 (Mtb CDC1551 [13]; [25]) [nM] | IC50 (Mtb CDC1551 [11]; [27]) [nM] | IC50 (Mtb H37Rv [14]) | also measured
1 | NNC(=O)c1ccncc1 [Isoniazid, isoniazid, reference compound] | < 0.1 | < 100 | < 100 | 100 ± 10 | – | – | – | – | – | – | – | – | – | MIC99 (Mtb H37Rv [1]; cholesterol as sole carbon source, 2 weeks post-compound treatment, listed as Inh.): <0.1 µM; MIC90 (W1) MDR-TB ([4]; MABA 1 week post-compound treatment, K26b00MR 113): 12.5 to 25 µM; fold higher value against MDR-TB than H37Rv ([4]; MABA, 1 and 2 weeks): 50–150 fold; MIC90 ([4]; 168 h, read-out: MIC90 (W1) MDR-TB, MABA 1 week post-compound treatment, K26b00MR 113): 13 to 25 µM (≈ 1.78 to 3.43 µg/mL); MIC90 ([4]; 336 h, read-out: MIC90 (W2) MDR-TB, MABA 2 weeks post-compound treatment, K26b00MR 113): 50 µM (≈ 6.86 µg/mL); MIC90 (H37Rv Mtb; 168 h, MABA 1 week post-compound treatment, glucose-casitone (standard) media, read-out: MIC90 (W1) H37Rv): 0.19 to 0.39 µM (≈ 0.0261 to 0.0535 µg/mL); MIC90 (H37Rv Mtb; 336 h, MABA 2 weeks post-compound treatment, read-out: MIC90 (W2) H37Rv): 0.39 µM (≈ 0.0535 µg/mL)
2 | N-Phenylpyridin-4-amine [2a] | – | – | – | – | 35 ± 5.8 | – | – | – | – | – | – | – | – | Kd (CYP142 [5]): 1100 ± 200 nM; CYP142 Δλmax (nm) (CYP142 [7]): 4 nm; CYP125 Δλmax (nm) HS (CYP125 [8]): 0 nm
3 | O=S(=O)(Nc1ccc(Cc2ccncc2)cc1)c1ccc(OC(F)(F)F)cc1 [5k, N-(4-(Pyridin-4-ylmethyl)phenyl)-4-(trifluoromethoxy)benzenesulfonamide] | 25 (≈ 10.2 µg/mL) | – | 2300 | 13000 ± 180 | 0.55 ± 0.12 | 910 ± 220 | 270 | 19000 | 25 (≈ 10.2 µg/mL) | 1200 | 9400 | – | – | THP-1 LD50 [9]: 32 µM; IC50 (Mtb (Erdman); [19]): 22000 ± 2000 nM; IC50 (CYP3A4; [20]): 260 nM; IC50 (CYP3A4; [21]): 1250 nM; IC50 (CYP2C9): 5270 nM; IC50 (CYP2D6): 180 nM; IC50 (CYP2C19): 3100 nM; IC50 (CYP1A): 5950 nM
4 | COc1c(N2C[C@@H]3CCCN[C@@H]3C2)c(F)cc2c(=O)c(C(=O)O)cn(C3CC3)c12 [Moxifloxacin, moxifloxacin, reference compound] | – | – | – | – | – | – | – | – | – | – | – | – | – | IC50 (Mtb (Erdman)): 330 ± 10 nM
5 | O=C(Nc1ccc(Cc2ccncc2)cc1)[C@H](Cc1c[nH]c2ccccc12)NCc1ccccc1 [5d, (S)-2-(Benzylamino)-3-(1H-indol-3-yl)-N-(4-(pyridin-4-ylmethyl)phenyl)propanamide] | 25 (≈ 11.5 µg/mL) | 4700 | 4700 | 2800 ± 200 | 0.072 ± 0.026 | 790 ± 90 | 230 | 19000 | 25 (≈ 11.5 µg/mL) | 4700 | 38000 | – | – | THP-1 cytotoxicity in words ([9]; concentrations up to 50 μM): weakly cytotoxic; THP-1 LD50 [9]: 45 µM; IC50 (Mtb H37Rv [2]; 1 week post-compound treatment, read-out: ATP-IC50 (W1) H37Rv, cholesterol): < 5000 nM; IC50 (Mtb (Erdman); [19]): 18000 ± 3000 nM; IC50 (CYP3A4; [20]): 520 nM; IC50 (CYP3A4; [21]): 1490 nM; IC50 (CYP2C9): 140 nM; IC50 (CYP2D6): 460 nM; IC50 (CYP2C19): < 100 nM; IC50 (CYP1A): 110 nM
6 | O=C(NCc1ccc2[nH]ccc2c1)c1ccc(Cc2ccncc2)cc1 [5f, N-((1H-Indol-5-yl)methyl)-4-(pyridin-4-ylmethyl)benzamide] | > 50 | > 50000 | > 50000 | – | 0.59 ± 0.24 | 3600 ± 410 | 1100 | > 50000 | > 50 | > 50000 | > 50000 | > 50000 | > 50000 nM | MIC99 (Mtb H37Rv [1]; [26]): >50 µM; MIC99 (Mtb CDC1551 [12]; [26]): >50 µM; Kd (CYP142 [15]): 3200 ± 40 nM
7 | Nc1ccc(C(=O)O)c(O)c1 [p-aminosalicylic acid, reference compound] | – | 40 | 290 | 2400 ± 120 | – | – | – | < 40 | – | 40 | 2300 | 70 | < 40 nM and 70 nM | MIC99 (Mtb H37Rv [1]; Mycobacterium tuberculosis, H37RV, 336 h): 0.19 µM (≈ 0.0291 µg/mL); MIC99 (Mtb CDC1551 [12]; Mycobacterium tuberculosis, CDC1551, 336 h): 0.39 µM (≈ 0.0597 µg/mL)
8 | O=S(=O)(Nc1ccc(Cc2ccncc2)cc1)c1ccccc1 [5j, N-(4-(Pyridin-4-ylmethyl)phenyl)benzenesulfonamide] | 50 (≈ 16.2 µg/mL) | 38000 | 50000 | – | 0.27 ± 0.02 | 1500 ± 160 | 440 | 38000 | 25 (≈ 8.11 µg/mL) | 9400 | > 50000 | 38000 | 19000 nM | –
